One test has as its system Rhizopus arrhizus. In words: Antifungal activity against Rhizopus arrhizus assessed as fungal growth inhibition. It is filed as functional, organism-based.
Test [1] has as its system Nakaseomyces glabratus. In words: Antifungal activity against Candida glabrata ATCC 90030 assessed as inhibition of microbial growth incubated for 24 hrs by broth microdilution method. It is filed as functional, organism-based. Particulars: ATCC 90030, 24 h. On the technique in general: Dilution methods test growth across graded concentrations, often in twofold steps.
Another test concerns Aspergillus fumigatus. In words: Antifungal activity against Aspergillus fumigatus ATCC 13073 strain assessed as […] growth inhibition. It is filed as functional, organism-based.
For another test, the system named is Fusarium oxysporum. As to the kind of experiment: Antifungal activity against Fusarium oxysporum assessed as inhibition of fungal growth. Type of test: functional, organism-based.
For test [2], the system named is Nakaseomyces glabratus. In words: Antifungal activity against Candida glabrata MTCC 3019 assessed as inhibition of fungal growth incubated for 24 hrs by agar well diffusion method. To be noted: MTCC 3019, 24 h. It is filed as functional, organism-based. A general note: Agar diffusion results depend on both activity and mobility in agar.
A further test has as its system Candida albicans. As to the kind of experiment: Antifungal activity against Candida albicans assessed as inhibition of fungal growth. It is filed as functional, organism-based.
For the next test, the system named is Cryptococcus neoformans. In words: […] activity against Cryptococcus neoformans assessed as inhibition of […]. It is filed as functional, organism-based.
Another test relates to Aspergillus flavus. As to the kind of experiment: Antifungal activity against Aspergillus flavus assessed as inhibition of fungal growth. It is filed as functional, organism-based.
A further test deals with [Candida] auris. In words: Antifungal activity against Candida auris assessed as inhibition of fungal growth. It is filed as functional, organism-based. To be noted: Candidozyma auris.
Test [3] relates to Mycobacterium tuberculosis. As to the kind of experiment: Antimycobacterial activity against Mycobacterium tuberculosis HN878 assessed as inhibition of mycobacterial growth incubated for 5 days. It is filed as functional. To be noted: HN878, 120 h, time 5 day.

Values after ≈ are worked out from the molar mass of the structure shown.

Take `CN(C)c1ccc(/C=C/c2ccc(C(=O)Nc3cc(C(=O)Nc4cc(C(=O)NCCC(=N)N)n(C)c4)n(C)c3)cn2)cc1`: the IC50 with Rhizopus arrhizus was determined as 0.8 µg/mL (≈ 1.38 µM); in the test on Nakaseomyces glabratus [1] it was 0.8 µg/mL; in the test with Aspergillus fumigatus, 0.8 µg/mL (≈ 1.38 µM); in the test with Fusarium oxysporum, 0.8 µg/mL (≈ 1.38 µM); with Nakaseomyces glabratus [2], 0.8 µg/mL (≈ 1.38 µM); in the test on Candida albicans, 0.8 µg/mL (≈ 1.38 µM). Moreover, the 50% inhibitory concentration (IC50) (in the test with Cryptococcus neoformans; in the test with Aspergillus flavus; in test [Candida] auris) was 0.8 µg/mL (≈ 1.38 µM) in each case.

For the compound `Cn1cc(NC(=O)c2cc(NC(=O)c3ccc(/C=C/c4ccc(C(F)(F)F)cc4)cc3)cn2C)cc1C(=O)NCCC(=N)N`, the MIC99 in test [3] turned out to be 1.56 µM (≈ 0.945 µg/mL).

A word on the IC50: it is the concentration needed to halve the response being measured. As usually defined, the MIC99 is an inhibitory concentration at the 99% level, which refers to growth in some studies and to a panel of isolates in others.

(Values after ChEMBL document CHEMBL5376023, “The allure of targets for novel drugs” (RSC Med Chem, 2024).)
